These results are taken from patent EP3431088A1, “MNTBAP FOR USE IN INDUCING A TRANSIENT IMMUNE TOLERANCE” (priority 2017, dated 2019).

For one test, the system named is rAAV1 CMV mSeap vector. As to the kind of experiment: rAAV readministration in TA: mSeap expression and vector copy number. It is filed as in vivo, C57BL/6 mice. As to the method:
(§1) MnTBAP (Calbiochem, San Diego, USA or Enzo Life Sciences, Farmingdale, USA) is dissolved in 75 mM NaOH to constitute a 20 mM stock solution. MnTBAP is dissolved in the complete medium, used for in vitro treatment, containing RPMI-1640 supplemented with 10% heat-inactivated fetal calf serum, 100 U/ml penicillin/streptomycin, 2 mM glutamax and 50 µM β-mercaptoethanol β-ME). Hypertonic medium, used to block clathrin dependent endocytosis, is complete medium supplemented with 0.45 M sucrose. For in vivo treatment, the stock solution is diluted with PBS and administered at 80 mg/kg intraperitoneally daily during five days. Control animals are injected with equivalent volume of PBS.
Readministration protocol: After the initial IV injection of rAAV2/1 CMV SGCA HY vector at D0 (two hours post first IP injection of MnTBAP) the second rAAV1 injection (2.10^9 vg of rAAV2/1 CMV mSeAP) is performed 28 days later in the left TA muscle. Mice are followed up to 93 days after readministration to analyze capsid-specific humoral response and to measure circulating mSeAP from serum samples. Mice are killed 93 days after second injection of vector. […]
Genomic DNA is extracted from frozen muscles using MagNA Pure 96 Instrument (Roche). […] Results are calculated from a standard curve based on dilutions of 2 plasmids containing either the Titin or CMV sequences. […]
Determination of alkaline phosphatase concentration in immunized mice sera is performed by chemoluminescence analyzis (C. Riviere et al., Gene therapy 13, 1300. 2006). Blood samples are centrifuged for 10 min at 8000 rpm to collect sera, endogenous alkaline phosphatase is heat inactivated for 5 min at 65°C and the heat-resistant mSeAP is measured by addition of the reaction buffer and CSPD® chemiluminescent substrate, according to the manufacturer's instructions (Tropix, Applied Biosystems, Forster City, USA). Chemiluminescence is quantified using a luminometer, Enspire (Perkin Elmer, Massachusetts, USA). Expression levels are expressed as ng of mSeAP per ml of serum using a standard curve of purified human placental alkaline phosphatase.

The next test deals with CD4. The test is described as follows: CD4 cell surface expression by flow cytometry. It counts as cell-based, murine. As to the method: as §1
After mechanic disruption of the spleen, erythrocytes are eliminated by hypotonic shock with ammonium chloride potassium (ACK) lysing buffer. Then CD4^+ T cells are isolated from spleen cell suspension by negative selection using a CD4^+ T cell isolation kit (Miltenyi Biotec, Paris, France) followed by auto-MACS (Miltenyi Biotec) magnetic sorting, according to the manufacturer's instructions. Purity of isolated CD4^+ T cells is usually > 95%. Cell suspensions are first incubated with anti-FcγRIII/II (Fc Block, 2.4G2, BD Biosciences, Le Pont de Claix, France) monoclonal antibodies (mAb) for 10 minutes at 4°C and then stained for 30 minutes at 4°C in PBS, 0.1% bovine serum albumin (BSA) with Fc Block present, using saturating amounts of rat anti-mouse CD4-Pacific Blue (RM4-5, BD Biosciences) mAb. Gates for CD4^+ populations are set according to isotype controls. Cell viability is determined by staining with 7-aminoactinomycin D (7-AAD; Sigma-Aldrich, St-Quentin-Fallavier, France) or Fixable Viability Dye eFluor 780 (eBiosciences, Paris, France). When indicated, samples are fixed with 1% paraformaldehyde. Samples are acquired on an LSR II flow cytometer (BD Biosciences) and data were analyzed with DIVA software (BD Biosciences).
(Flow cytometry measures light scatter and fluorescence of single cells or particles in a stream.)

For the molecule `O=C(O)c1ccc(-c2c3nc(c(-c4ccc(C(=O)O)cc4)c4ccc([n-]4)c(-c4ccc(C(=O)O)cc4)c4nc(c(-c5ccc(C(=O)O)cc5)c5ccc2[n-]5)C=C4)C=C3)cc1.[Mn+3]` [MnTBAP, manganese [III] tetrakis (4-benzoic acid) porphyrin], the “level of mSeap in the serum” value in the test with rAAV1 CMV mSeap vector (93 days after vector readministration, vs control mice) is “significantly increased”. In the test with rAAV1 CMV mSeap vector (injected TA harvested 93 days after vector readministration), the “histochemical detection of mSeap in muscle” value is on record as “detection of the reporter gene mSeap”. For the same molecule, the “normalized copy number of the readministered rAAV” value with rAAV1 CMV mSeap vector (injected TA, CMV PCR normalized to titin, vs control mice) is “significantly increased”. Besides, the “CD4 expression (CD4 GMFI)” value in the test on CD4 (2 hours after washing out MnTBAP ("2 h removed")) is “the decrease of CD4 expression is less important”; in the test on CD4 (fixed cells, 400 µM, 2 hours ("treated") vs "none"), “decrease of CD4 expression”; with CD4 (overnight after removing MnTBAP ("O/N removed")) it was “further less accentuated”. Besides, the CD4 expression entry in the test with CD4 (hypertonic conditions (RPMI + 0.45 M sucrose), 400 µM, 2 hours, treated vs non-treated) is “no significant difference of CD4 expression”; in the test with CD4 (viable murine splenic enriched CD4+ T cells, 2 hours, 400 µM), “maximal decrease of CD4 expression”; with CD4 (viable murine splenic enriched CD4+ T cells, 2 hours, increasing doses 0, 100, 200, 400 µM) it was “progressive decrease of CD4 expression”. Further, in the test with CD4 (normal tonicity (RPMI), 400 µM, 2 hours, vs non-treated), the “percentage of CD4 expression” value is listed as “decreased”. Further, in the test with CD4 (splenic enriched CD4+ T cells, 400 µM, 2 hours, vs control), the “CD4 at the cell surface of CD4 expressing cells” value is “disappearance of CD4 at the cell surface”.
